From patent US11844868B2, “Dry powder composition for peroral administration” (VICORE PHARMA AB, priority 2020, dated 2023)
Values belong to the molecule of their own block, whether it stands above or below them.

Tests used:
Format in all cases: physicochemical
[1] = Stability of aqueous solutions of C21 (free C21 1 mg/mL in 0.9% NaCl pH 9.4; sodium salt likewise) under four storage conditions, HPLC; conditions: for light-induced degradation: aqueous solution, RT/light; for chemical stability: solution stored in dark at 5° C., RT and 40° C. for four weeks
Description: The stability of free C21 in 0.9% NaCl pH 9.4 was investigated.
Solutions of 1 mg/mL of C21 were studied for four weeks under four different storage conditions. The solution was filtered through a 0.22 sterile syringe filter to minimize bacterial growth during the stability test. The samples were analysed by HPLC for purity.
The results are summarised in Table 3 below, in which the amount of C21 is given as a percentage of the initial amount of drug. Solution pHs were also measured and are shown within parenthesis in Table 3.
The stability of the sodium salt of C21 was also investigated under the same storage conditions.
At the time for analysis of the one week samples, it was noted that the heating cabinet for storage of samples at 40° C. was broken. In view of this, these samples were thereafter kept at room temperature for three days.

[2] = Accelerated stability of C21/mannitol powder mixtures, 60° C. for 12 days
Description: C21 sodium salt was used together with 7 different types of mannitol from two different manufacturers.
C21 and mannitol were added to glass flasks and were mixed together using a Turbula mixer. At a mixing time of 30 minutes, each flask was sampled for homogeneity and related impurities were analysed.
An aliquot of each powder mixture was also subjected to 60° C. for 12 days in a stability analysis. The nominal content of C21 was 7.4% w/w (calculated as free C21) for all mannitol mixtures except one, where an additional strength of 14.8% w/w was also tested.

[3] = Excipient compatibility study, 60° C. for 12 days (related impurities)
Description: The excipients used in the capsules in Comparative Example 3 above were evaluated along with some additional ones (see Table 8 below).
C21 (sodium salt) used in these experiments was ground and passed through a 300 μm sieve. Mixtures of each excipient and C21 were prepared by thorough mixing in the amounts specified in Table 8. The ratio of C21 to various fillers (D-mannitol, MCC, lactose monohydrate and HPMC) was adapted to give a volume equivalent to the larger part of a capsule.
Three capsules of each type were filled with C21. All preparations were stored under accelerated stability conditions at 60° C. for 12 days prior to analysis.
In addition to the disintegrants (sodium starch glycolate and croscarmellose sodium) mentioned above, crospovidone of two different types (Kollidon® CL (Type A), and Kollidon® CL-SF (Type B) (both BASF) were tested.
Mixtures of 130 mg crospovidone and 200 mg C21 were prepared and were thoroughly mixed using a Turbula mixer for 10 minutes. All of these preparations were analysed at time zero and after storage at accelerated stability conditions at 60° C. for 12 days.

[4] = Solubility of C21 sodium salt in aqueous vehicles
Description: In this experiment, C21 sodium salt (Syntagon AB) was added to the vehicle, small amounts at a time. About 20-30 mg of the sodium salt was easily dissolved in all the vehicles tested. Salt was continuously added to the same sample in an attempt to obtain a saturated solution. In this way, higher amounts, such as 40-60 mg/mL could be dissolved. The solubility is probably even higher than this in the vehicles tested, but this was not established in view of the limited amount of drug compound available.

- Amount of Free C21, % of initial ([1]; 5° C., dark, 1 week): 101 % of initial
- Solution pH (within parenthesis) ([1]; 5° C., dark, 1 week): 9.2
- Amount of Free C21, % of initial ([1]; 5° C., dark, 2 weeks): 107 % of initial
- Solution pH (within parenthesis) ([1]; 5° C., dark, 2 weeks): 9.2
- Amount of Free C21, % of initial ([1]; 5° C., dark, 3 weeks): 108 % of initial
- Solution pH (within parenthesis) ([1]; 5° C., dark, 3 weeks): 9.1
- Amount of Free C21, % of initial ([1]; 5° C., dark, 4 weeks): 108 % of initial
- Solution pH (within parenthesis) ([1]; 5° C., dark, 4 weeks): 9.2
- Amount of Free C21, % of initial ([1]; 5° C., dark, Initial): 100 % of initial
- Solution pH (within parenthesis) ([1]; 5° C., dark, Initial): 9.4
- Amount of Free C21, % of initial ([1]; 40° C., dark, 1 week): 101 % of initial
- Solution pH (within parenthesis) ([1]; 40° C., dark, 1 week): 9.0
- Amount of Free C21, % of initial ([1]; 40° C., dark, 2 weeks): 111 % of initial
- Solution pH (within parenthesis) ([1]; 40° C., dark, 2 weeks): 8.6
- Amount of Free C21, % of initial ([1]; 40° C., dark, 3 weeks): 106 % of initial
- Solution pH (within parenthesis) ([1]; 40° C., dark, 3 weeks): 8.7
- Amount of Free C21, % of initial ([1]; 40° C., dark, 4 weeks): 107 % of initial
- Solution pH (within parenthesis) ([1]; 40° C., dark, 4 weeks): 8.7
- Amount of Free C21, % of initial ([1]; 40° C., dark, Initial): 100 % of initial
- Solution pH (within parenthesis) ([1]; 40° C., dark, Initial): 9.4
- Amount of Free C21, % of initial ([1]; RT, dark, 1 week): 97 % of initial
- Solution pH (within parenthesis) ([1]; RT, dark, 1 week): (9.2)
- Amount of Free C21, % of initial ([1]; RT, dark, 2 weeks): 109 % of initial
- Solution pH (within parenthesis) ([1]; RT, dark, 2 weeks): (8.9)
- Amount of Free C21, % of initial ([1]; RT, dark, 3 weeks): 105 % of initial
- Solution pH (within parenthesis) ([1]; RT, dark, 3 weeks): (9.0)
- Amount of Free C21, % of initial ([1]; RT, dark, 4 weeks): 106 % of initial
- Solution pH (within parenthesis) ([1]; RT, dark, 4 weeks): (8.9)
- Amount of Free C21, % of initial ([1]; RT, dark, Initial): 100 % of initial
- Solution pH (within parenthesis) ([1]; RT, dark, Initial): (9.4)
- Amount of Free C21, % of initial ([1]; RT, light, 1 week): 96 % of initial
- Solution pH (within parenthesis) ([1]; RT, light, 1 week): (9.0)
- Amount of Free C21, % of initial ([1]; RT, light, 2 weeks): 44 % of initial
- Solution pH (within parenthesis) ([1]; RT, light, 2 weeks): (8.0)
- Amount of Free C21, % of initial ([1]; RT, light, 3 weeks): 96 % of initial
- Solution pH (within parenthesis) ([1]; RT, light, 3 weeks): (8.5)
- Amount of Free C21, % of initial ([1]; RT, light, 4 weeks): 13 % of initial
- Solution pH (within parenthesis) ([1]; RT, light, 4 weeks): (7.7)
- Amount of Free C21, % of initial ([1]; RT, light, Initial): 100 % of initial
- Solution pH (within parenthesis) ([1]; RT, light, Initial): (9.4)
- light-induced degradation [1]: light-induced degradation occurs
- total impurity peak area ([1]; free C21 solution, samples stored at 5° C., RT/dark and 40° C.): around 2.5 area % of C21 peak area
- chemical stability [1]: chemically stable
Compound: CCCCOC(=O)NS(=O)(=O)c1sc(CC(C)C)cc1-c1ccc(Cn2ccnc2)cc1 [free C21, N-butyloxycarbonyl-3-(4-imidazol-1-ylmethylphenyl)-5-iso-butylthiophene-2-sulfonamide]

- Amount of Free C21, % of initial ([1]; 5° C., dark, 1 week): 108 % of initial
- Solution pH (within parenthesis) ([1]; 5° C., dark, 1 week): 8.5
- Amount of Free C21, % of initial ([1]; 5° C., dark, 2 weeks): 113 % of initial
- Solution pH (within parenthesis) ([1]; 5° C., dark, 2 weeks): 8.4
- Amount of Free C21, % of initial ([1]; 5° C., dark, 3 weeks): 113 % of initial
- Solution pH (within parenthesis) ([1]; 5° C., dark, 3 weeks): 8.5
- Amount of Free C21, % of initial ([1]; 5° C., dark, 4 weeks): 112 % of initial
- Solution pH (within parenthesis) ([1]; 5° C., dark, 4 weeks): 8.5
- Amount of Free C21, % of initial ([1]; 5° C., dark, Initial): 100 % of initial
- Solution pH (within parenthesis) ([1]; 5° C., dark, Initial): 8.3
- Amount of Free C21, % of initial ([1]; 40° C., dark, 1 week): 111 % of initial
- Solution pH (within parenthesis) ([1]; 40° C., dark, 1 week): 8.6
- Amount of Free C21, % of initial ([1]; 40° C., dark, 2 weeks): 111 % of initial
- Solution pH (within parenthesis) ([1]; 40° C., dark, 2 weeks): 8.5
- Amount of Free C21, % of initial ([1]; 40° C., dark, 3 weeks): 109 % of initial
- Solution pH (within parenthesis) ([1]; 40° C., dark, 3 weeks): 8.7
- Amount of Free C21, % of initial ([1]; 40° C., dark, 4 weeks): 118 % of initial
- Solution pH (within parenthesis) ([1]; 40° C., dark, 4 weeks): 8.1
- Amount of Free C21, % of initial ([1]; 40° C., dark, Initial): 100 % of initial
- Solution pH (within parenthesis) ([1]; 40° C., dark, Initial): 8.3
- Amount of Free C21, % of initial ([1]; RT, dark, 1 week): 115 % of initial
- Solution pH (within parenthesis) ([1]; RT, dark, 1 week): 8.6
- Amount of Free C21, % of initial ([1]; RT, dark, 2 weeks): 110 % of initial
- Solution pH (within parenthesis) ([1]; RT, dark, 2 weeks): 8.8
- Amount of Free C21, % of initial ([1]; RT, dark, 3 weeks): 111 % of initial
- Solution pH (within parenthesis) ([1]; RT, dark, 3 weeks): 8.8
- Amount of Free C21, % of initial ([1]; RT, dark, 4 weeks): 112 % of initial
- Solution pH (within parenthesis) ([1]; RT, dark, 4 weeks): 8.2
- Amount of Free C21, % of initial ([1]; RT, dark, Initial): 100 % of initial
- Solution pH (within parenthesis) ([1]; RT, dark, Initial): 8.3
- Amount of Free C21, % of initial ([1]; RT, light, 1 week): 108 % of initial
- Solution pH (within parenthesis) ([1]; RT, light, 1 week): (8.4)
- Amount of Free C21, % of initial ([1]; RT, light, 2 weeks): 96 % of initial
- Solution pH (within parenthesis) ([1]; RT, light, 2 weeks): (8.0)
- Amount of Free C21, % of initial ([1]; RT, light, 3 weeks): 72 % of initial
- Solution pH (within parenthesis) ([1]; RT, light, 3 weeks): (8.3)
- Amount of Free C21, % of initial ([1]; RT, light, 4 weeks): 9 % of initial
- Solution pH (within parenthesis) ([1]; RT, light, 4 weeks): (7.3)
- Amount of Free C21, % of initial ([1]; RT, light, Initial): 100 % of initial
- Solution pH (within parenthesis) ([1]; RT, light, Initial): (8.3)
- light-induced degradation [1]: light-induced degradation occurs
- chemical stability [1]: chemically stable
- Impurities ≥0.05% Formed: 1 [2]: 0.26 area %
- Degradation: Sum of impurities (≥0.05%) [3]: 0.26%
- Individual Impurity 1 [3]: 0.26 area %
- degradation of C21 [3]: No degradation
- amount that could be dissolved ([4]; salt continuously added, vehicles tested, saturation not established): 40 to 60 mg/mL
- solubility compared with free C21 ([4]; similar experiment): considerably higher than free C21
- Concentration (solubility) ([4]; vehicle 0.9% NaCl, pH 9.3): >40 mg/mL
- Concentration (solubility) ([4]; vehicle H2O, pH 9.8): >65 mg/mL
- Concentration (solubility) ([4]; vehicle PBS pH 7.4, measured pH 9.4): >40 mg/mL
Compound: CCCCOC(=O)[N-]S(=O)(=O)c1sc(CC(C)C)cc1-c1ccc(Cn2ccnc2)cc1.[Na+] [C21 sodium salt]
